Assay results from patent EP0572662B1, “SILVER HALIDE PHOTOGRAPHIC MATERIAL” (FUJI PHOTO FILM CO., LTD., priority 1991, dated 1993).

Test: Speed of silver telluride formation in a silver halide emulsion (Kubelka-Munk reflectivity test)
Type: physicochemical
Settings: octahedral silver bromide emulsion, 50°C, pH 6.3, pAg 8.3, telluride 1 × 10^-3 mol/mol Ag, reflectivity at 520 nm
Method: The speed with which silver telluride is formed in the silver halide emulsion can be determined by the following test.
When a tellurium sensitizer is added in a great amount (e.g., 1 × 10^-3 mol/mol Ag), the silver telluride formed absorbs light beam of the visible region. […] 181 (1966) and ibid., Vol. 16, p. 102 (1968) can be applied for sulfur sensitizers. Therefore, the relative speed at which silver telluride is formed can easily be obtained by the same method as used in determining the amount of silver sulfide formed in a silver halide emulsion from the infinite reflectivity of the emulsion to visible light beams (520 nm) in accordance the Kubelka-Munk formula. […]
An emulsion which contains octahedral silver bromide grains having an average size of 0.5 µm (containing 0.75 mol of AgBr and 80 g of gelatin per kilogram) is maintained at 50°C, while holding pH and pAg at 6.3 and 8.3, respectively. […] Then, the reflectivity (R) of the emulsion to light beams of 520 nm is detected at times by means of a spectrophotometer having an integrating sphere, using the reflectivity of a blank emulsion as reference. Every reflectivity, thus detected, is substituted in the Kubelka-Munk formula, (1-R)^2/2R. The time spend until the value of (1-R)^2/2R becomes 0.01 is measured. The pseudo-first-order reaction rate constant k (min-1) is determined from the time thus measured. […]

SMILES	pseudo-first-order reaction rate constant k
CC(C)CP(=[Te])(CC(C)C)CC(C)C [Compound 7, ((i)C4H9)3P = Te]	~0.004 min⁻¹
CC(C)P(=[Te])(C(C)C)C(C)C [Compound 4, ((i)C3H7)3P = Te]	~7e-05 min⁻¹
